Values belong to the molecule of their own block, whether it stands above or below them.
How the values were obtained:
Carbonic anhydrase 1 = Carbonic anhydrase 1 (Homo sapiens, UniProt P00915); test: Binding affinity to human CA1 assessed as inhibition constant incubated for 10 mins by phenol red dye based stopped flow CO2 hydration assay
Carbonic anhydrase 2 = Carbonic anhydrase 2 (Homo sapiens, UniProt P00918); test: Binding affinity to human CA2 assessed as inhibition constant incubated for 10 mins by phenol red dye based stopped flow CO2 hydration assay
HeLa [1] = test: Cytotoxicity against human HeLa cells; format: functional, cell-based
[2] = Cytotoxicity against human Lu1 cells; format: functional, cell-based
HepG2 [3] = test: Cytotoxicity against human HepG2 cells; format: functional, cell-based
[4] = target: Epidermal growth factor receptor (Homo sapiens, UniProt P00533); test: Inhibition of EGFR (unknown origin)
[5] = target: Receptor tyrosine-protein kinase erbB-2 (Homo sapiens, UniProt P04626); test: Inhibition of HER2 (unknown origin)
HeLa [6] = test: Antiproliferative activity against human HeLa cells assessed as inhibition of cell growth after 72 hrs by MTT assay; format: functional, cell-based
MCF7 = test: Antiproliferative activity against human MCF7 cells assessed as inhibition of cell growth after 72 hrs by MTT assay; format: functional, cell-based; settings: MCF7, 72 h
SK-MEL-2 = test: Antiproliferative activity against human SK-MEL-2 cells assessed as inhibition of cell growth after 72 hrs by MTT assay; format: functional, cell-based; settings: SK-MEL-2, 72 h
[7] = Antiproliferative activity against human Lu1 cells assessed as inhibition of cell growth after 72 hrs by MTT assay; format: functional, cell-based; settings: Lu1, 72 h
HepG2 [8] = test: Antiproliferative activity against human HepG2 cells assessed as inhibition of cell growth after 72 hrs by MTT assay; format: functional, cell-based; settings: HepG2, 72 h
HepG2 [9] = test: Cytotoxicity against human HepG2 cells incubated for 72 hrs by MTT assay; format: functional, cell-based; settings: HepG2, 72 h
[10] = Cytotoxicity against human Lu1 cells incubated for 72 hrs by MTT assay; format: functional, cell-based; settings: Lu1, 72 h
HeLa [11] = test: Cytotoxicity against human HeLa cells incubated for 72 hrs by MTT assay; format: functional, cell-based

Sequence of Receptor tyrosine-protein kinase erbB-2 (P04626 whole entry): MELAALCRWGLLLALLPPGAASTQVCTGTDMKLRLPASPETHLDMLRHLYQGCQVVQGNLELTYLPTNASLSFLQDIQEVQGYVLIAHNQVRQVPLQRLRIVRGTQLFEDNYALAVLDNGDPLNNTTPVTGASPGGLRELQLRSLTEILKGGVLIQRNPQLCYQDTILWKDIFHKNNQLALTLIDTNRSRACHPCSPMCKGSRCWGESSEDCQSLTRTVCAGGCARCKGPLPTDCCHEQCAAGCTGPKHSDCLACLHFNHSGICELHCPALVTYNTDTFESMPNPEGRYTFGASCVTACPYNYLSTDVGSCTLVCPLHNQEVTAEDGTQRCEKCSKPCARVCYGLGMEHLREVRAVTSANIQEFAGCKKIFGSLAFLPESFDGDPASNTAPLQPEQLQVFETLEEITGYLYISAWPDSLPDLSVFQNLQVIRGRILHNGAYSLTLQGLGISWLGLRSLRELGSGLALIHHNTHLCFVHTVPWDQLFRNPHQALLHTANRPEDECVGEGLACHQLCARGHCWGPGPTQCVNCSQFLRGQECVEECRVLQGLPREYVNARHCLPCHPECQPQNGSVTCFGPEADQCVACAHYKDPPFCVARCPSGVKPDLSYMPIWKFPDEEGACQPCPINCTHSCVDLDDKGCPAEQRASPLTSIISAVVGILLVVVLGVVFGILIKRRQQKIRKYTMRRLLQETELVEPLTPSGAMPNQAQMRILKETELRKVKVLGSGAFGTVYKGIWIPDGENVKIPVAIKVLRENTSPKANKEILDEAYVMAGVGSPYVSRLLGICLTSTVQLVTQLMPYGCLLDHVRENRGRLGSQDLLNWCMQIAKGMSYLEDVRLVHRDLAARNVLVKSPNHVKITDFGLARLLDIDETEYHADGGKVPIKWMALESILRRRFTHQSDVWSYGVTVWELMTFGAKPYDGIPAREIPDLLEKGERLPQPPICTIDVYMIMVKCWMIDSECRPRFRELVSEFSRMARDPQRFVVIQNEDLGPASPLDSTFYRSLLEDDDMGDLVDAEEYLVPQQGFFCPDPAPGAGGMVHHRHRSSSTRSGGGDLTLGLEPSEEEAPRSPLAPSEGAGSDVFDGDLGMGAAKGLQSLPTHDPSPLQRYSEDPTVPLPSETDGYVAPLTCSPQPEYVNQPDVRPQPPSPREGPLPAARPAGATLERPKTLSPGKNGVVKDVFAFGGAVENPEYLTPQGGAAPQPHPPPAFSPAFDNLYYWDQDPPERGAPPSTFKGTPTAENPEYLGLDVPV
Sequence of Carbonic anhydrase 1 (P00915 whole entry): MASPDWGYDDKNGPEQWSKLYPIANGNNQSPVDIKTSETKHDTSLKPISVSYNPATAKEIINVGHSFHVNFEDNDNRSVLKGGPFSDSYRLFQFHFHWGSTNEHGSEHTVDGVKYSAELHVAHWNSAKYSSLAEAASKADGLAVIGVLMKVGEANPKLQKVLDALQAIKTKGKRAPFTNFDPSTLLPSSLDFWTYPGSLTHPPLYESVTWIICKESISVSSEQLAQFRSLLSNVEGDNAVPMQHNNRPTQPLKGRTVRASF
Sequence of Epidermal growth factor receptor (P00533 whole entry): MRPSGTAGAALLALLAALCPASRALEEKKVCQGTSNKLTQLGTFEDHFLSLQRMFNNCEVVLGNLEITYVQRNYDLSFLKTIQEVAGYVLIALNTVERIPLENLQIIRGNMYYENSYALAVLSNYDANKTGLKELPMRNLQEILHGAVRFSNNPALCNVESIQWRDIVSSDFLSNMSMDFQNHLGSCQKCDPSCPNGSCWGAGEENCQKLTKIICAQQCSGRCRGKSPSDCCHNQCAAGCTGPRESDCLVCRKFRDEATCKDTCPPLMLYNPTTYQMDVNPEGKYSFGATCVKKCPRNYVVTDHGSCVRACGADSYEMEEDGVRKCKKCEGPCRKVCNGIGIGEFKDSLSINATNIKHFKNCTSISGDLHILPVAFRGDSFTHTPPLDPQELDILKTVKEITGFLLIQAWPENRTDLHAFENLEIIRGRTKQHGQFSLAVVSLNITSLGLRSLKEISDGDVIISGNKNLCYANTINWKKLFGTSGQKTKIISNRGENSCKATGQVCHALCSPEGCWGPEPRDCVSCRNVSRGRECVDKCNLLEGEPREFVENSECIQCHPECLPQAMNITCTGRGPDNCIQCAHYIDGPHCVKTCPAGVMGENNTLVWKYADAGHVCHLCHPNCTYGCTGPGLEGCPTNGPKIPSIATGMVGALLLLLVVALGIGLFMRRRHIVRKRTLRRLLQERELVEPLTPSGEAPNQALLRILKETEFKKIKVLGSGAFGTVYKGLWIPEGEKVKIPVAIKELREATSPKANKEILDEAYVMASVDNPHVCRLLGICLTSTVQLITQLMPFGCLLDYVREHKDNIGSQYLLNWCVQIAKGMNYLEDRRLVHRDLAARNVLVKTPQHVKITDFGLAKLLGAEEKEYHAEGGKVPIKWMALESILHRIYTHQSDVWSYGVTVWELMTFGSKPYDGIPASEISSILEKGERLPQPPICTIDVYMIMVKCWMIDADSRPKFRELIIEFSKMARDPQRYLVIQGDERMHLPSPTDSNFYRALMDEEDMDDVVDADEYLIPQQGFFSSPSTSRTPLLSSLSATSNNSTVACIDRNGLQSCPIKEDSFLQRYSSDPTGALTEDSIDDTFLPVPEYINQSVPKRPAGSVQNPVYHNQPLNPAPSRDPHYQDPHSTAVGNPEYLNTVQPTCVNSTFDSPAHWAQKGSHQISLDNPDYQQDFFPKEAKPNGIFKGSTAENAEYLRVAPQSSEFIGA

Ki (Carbonic anhydrase 1): 0.0994 µM
Ki (Carbonic anhydrase 2): 0.0994 µM
Compound: C[C@@H]1CN(S(=O)(=O)c2cc(C(=O)Nc3ccc4c(c3)C=CS(=O)(=O)O4)ccc2F)C[C@H](C)O1

Ki (Carbonic anhydrase 1): 0.0994 µM
Ki (Carbonic anhydrase 2): 0.0994 µM
Compound: O=C(Nc1ccc2c(c1)C=CS(=O)(=O)O2)c1ccc(F)c(S(=O)(=O)N2CCOCC2)c1

IC50 [4]: 0.15 µM
IC50 [5]: 0.15 µM
Compound: CC(=O)OC[C@H]1O[C@@H](n2c(-c3ccccc3)cs/c2=N\N=C\c2cc(=O)oc3cc(OCCC(C)C)ccc23)[C@H](OC(C)=O)[C@@H](OC(C)=O)[C@@H]1OC(C)=O
IC50 (HeLa [1]): 1.18 µM
IC50 [2]: 1.18 µM
IC50 (HepG2 [3]): 1.18 µM

IC50 (HeLa [6]): 1.28 µM
IC50 (MCF7): 1.28 µM
IC50 (SK-MEL-2): 1.28 µM
IC50 (HepG2 [8]): 1.28 µM
Compound: CC(=O)OC[C@H]1O[C@@H](NC(=S)N/N=C(\C)c2cc3ccc(C)cc3oc2=O)[C@H](OC(C)=O)[C@@H](OC(C)=O)[C@H]1OC(C)=O
IC50 [7]: 1.28 µM

IC50 (HeLa [6]): 1.28 µM
IC50 (MCF7): 1.28 µM
IC50 (SK-MEL-2): 1.28 µM
IC50 (HepG2 [8]): 1.28 µM
Compound: CC(=O)OC[C@H]1O[C@@H](NC(=S)N/N=C(\C)c2cc3cc(Br)ccc3oc2=O)[C@H](OC(C)=O)[C@@H](OC(C)=O)[C@H]1OC(C)=O
IC50 [7]: 1.28 µM

Ki (Carbonic anhydrase 1): 0.0994 µM
Ki (Carbonic anhydrase 2): 0.0994 µM
Compound: C[C@@H]1CN(S(=O)(=O)c2cc(C(=O)Nc3ccc4c(c3)C=CS(=O)(=O)O4)ccc2Cl)C[C@H](C)S1

IC50 (HeLa [6]): 1.28 µM
IC50 (MCF7): 1.28 µM
IC50 (SK-MEL-2): 1.28 µM
IC50 (HepG2 [8]): 1.28 µM
Compound: CC(=O)OC[C@H]1O[C@@H](NC(=S)N/N=C(\C)c2cc3cc(C)ccc3oc2=O)[C@H](OC(C)=O)[C@@H](OC(C)=O)[C@H]1OC(C)=O
IC50 [7]: 1.28 µM

Compound: CC(=O)OC[C@H]1O[C@@H](n2c(-c3ccccc3)cs/c2=N\N=C\c2cc(=O)oc3cc(C)ccc23)[C@H](OC(C)=O)[C@@H](OC(C)=O)[C@@H]1OC(C)=O
IC50 (HeLa [1]): 1.18 µM
IC50 [2]: 1.18 µM
IC50 (HepG2 [3]): 1.18 µM

Ki (Carbonic anhydrase 1): 0.0994 µM
Ki (Carbonic anhydrase 2): 0.0994 µM
Compound: O=C(Nc1ccc2c(c1)C=CS(=O)(=O)O2)c1ccc(Cl)c(S(=O)(=O)N2CCCCC2)c1

Ki (Carbonic anhydrase 1): 0.0994 µM
Ki (Carbonic anhydrase 2): 0.0994 µM
Compound: COc1ccc(C(=O)Nc2ccc3c(c2)C=CS(=O)(=O)O3)cc1S(=O)(=O)N1CCCC1

IC50 [4]: 0.22 µM
IC50 [5]: 0.13 µM
Compound: CCOc1ccc2oc(=O)cc(C3SC(N(C(C)=O)[C@@H]4O[C@H](COC(C)=O)[C@H](OC(C)=O)[C@H](OC(C)=O)[C@H]4OC(C)=O)=NN3C(C)=O)c2c1 (stereo partly drawn)
IC50 (HepG2 [9]): 1.18 µM
IC50 [10]: 1.18 µM
IC50 (HeLa [11]): 1.18 µM

Ki (Carbonic anhydrase 1): 0.0994 µM
Ki (Carbonic anhydrase 2): 0.0994 µM
Compound: O=C(Nc1ccc2c(c1)C=CS(=O)(=O)O2)c1ccc(Cl)c(S(=O)(=O)N2CCOCC2)c1

Ki (Carbonic anhydrase 1): 0.0994 µM
Ki (Carbonic anhydrase 2): 0.0994 µM
Compound: COc1ccc(C(=O)Nc2ccc3c(c2)C=CS(=O)(=O)O3)cc1S(=O)(=O)N1C[C@@H](C)O[C@@H](C)C1

Ki (Carbonic anhydrase 1): 0.0994 µM
Ki (Carbonic anhydrase 2): 0.0994 µM
Compound: COc1ccc(C(=O)Nc2ccc3c(c2)C=CS(=O)(=O)O3)cc1S(=O)(=O)N1CCOCC1

IC50 (HeLa [6]): 1.28 µM
IC50 (MCF7): 1.28 µM
IC50 (SK-MEL-2): 1.28 µM
IC50 (HepG2 [8]): 1.28 µM
Compound: CC(=O)OC[C@H]1O[C@@H](NC(=S)N/N=C(\C)c2c(C)c3ccc(O)cc3oc2=O)[C@H](OC(C)=O)[C@@H](OC(C)=O)[C@H]1OC(C)=O
IC50 [7]: 1.28 µM

Ki (Carbonic anhydrase 1): 0.0994 µM
Ki (Carbonic anhydrase 2): 0.0994 µM
Compound: O=C(Nc1ccc2c(c1)C=CS(=O)(=O)O2)c1ccc(F)c(S(=O)(=O)N2CCCC2)c1

IC50 [4]: 0.22 µM
IC50 [5]: 0.13 µM
Compound: CCCCOc1ccc2oc(=O)cc(C3SC(N(C(C)=O)[C@@H]4O[C@H](COC(C)=O)[C@@H](OC(C)=O)[C@H](OC(C)=O)[C@H]4OC(C)=O)=NN3C(C)=O)c2c1 (stereo partly drawn)
IC50 (HepG2 [9]): 1.18 µM
IC50 [10]: 1.18 µM
IC50 (HeLa [11]): 1.18 µM

IC50 (HeLa [6]): 1.28 µM
IC50 (MCF7): 1.28 µM
IC50 (SK-MEL-2): 1.28 µM
IC50 (HepG2 [8]): 1.28 µM
Compound: CC(=O)OC[C@H]1O[C@@H](NC(=S)N/N=C(\C)c2cc3cc(Cl)ccc3oc2=O)[C@H](OC(C)=O)[C@@H](OC(C)=O)[C@H]1OC(C)=O
IC50 [7]: 1.28 µM

IC50 (HeLa [6]): 1.28 µM
IC50 (MCF7): 1.28 µM
IC50 (SK-MEL-2): 1.28 µM
IC50 (HepG2 [8]): 1.28 µM
Compound: CC(=O)OC[C@H]1O[C@@H](NC(=S)N/N=C(\C)c2c(C)c3ccccc3oc2=O)[C@H](OC(C)=O)[C@@H](OC(C)=O)[C@H]1OC(C)=O
IC50 [7]: 1.28 µM

Compound: CC(=O)OC[C@H]1O[C@@H](n2c(-c3ccccc3)cs/c2=N\N=C(/C)c2cc3ccccc3oc2=O)[C@H](OC(C)=O)[C@@H](OC(C)=O)[C@@H]1OC(C)=O
IC50 (HeLa [1]): 1.18 µM
IC50 [2]: 1.18 µM
IC50 (HepG2 [3]): 1.18 µM

IC50 [4]: 0.15 µM
IC50 [5]: 0.15 µM
Compound: CCCCCOc1ccc2oc(=O)cc(/C=N/N=c3\scc(-c4ccccc4)n3[C@@H]3O[C@H](COC(C)=O)[C@@H](OC(C)=O)[C@H](OC(C)=O)[C@H]3OC(C)=O)c2c1
IC50 (HeLa [1]): 1.18 µM
IC50 [2]: 1.18 µM
IC50 (HepG2 [3]): 1.18 µM

Ki (Carbonic anhydrase 1): 0.0994 µM
Ki (Carbonic anhydrase 2): 0.0994 µM
Compound: Cc1ccc(C(=O)Nc2ccc3c(c2)C=CS(=O)(=O)O3)cc1S(=O)(=O)N1CCCC1

IC50 (HeLa [6]): 1.28 µM
IC50 (MCF7): 1.28 µM
IC50 (SK-MEL-2): 1.28 µM
IC50 (HepG2 [8]): 1.28 µM
Compound: CC(=O)OC[C@H]1O[C@@H](NC(=S)N/N=C(\C)c2c(O)c3cccc(C)c3oc2=O)[C@H](OC(C)=O)[C@@H](OC(C)=O)[C@H]1OC(C)=O
IC50 [7]: 1.28 µM

Ki (Carbonic anhydrase 1): 0.0994 µM
Ki (Carbonic anhydrase 2): 0.0994 µM
Compound: COc1ccc(C(=O)Nc2ccc3c(c2)C=CS(=O)(=O)O3)cc1S(=O)(=O)N1CCSCC1
